How the values were obtained:
Format in all cases: in vivo
corn (Zea mays) = assay: Test A postemergence, corn; conditions: visual injury, 0 to 100 scale (0 no effect, 100 complete control), approximately 10 days
Excerpt: (§1) Test A Seeds of plant species selected from barnyardgrass (Echinochloa crus-galli), kochia (Kochia scoparia), ragweed (common ragweed, Ambrosia elatior), ryegrass, Italian (Lolium multiflorum), foxtail, giant (Setaria faberii), and pigweed (Amaranthus retroflexus), were planted into a blend of loam soil and sand and treated preemergence with a directed soil spray using test chemicals formulated in a non-phytotoxic solvent mixture which included a surfactant.
(§2) At the same time, plants selected from these weed species and also blackgrass (Alopecurus myosuroides), galium (catchweed bedstraw, Galium aparine), wheat (Triticum aestivum), and corn (Zea mays) were planted in pots containing the same blend of loam soil and sand and treated with postemergence applications of test chemicals formulated in the same manner. Plants ranged in height from 2 to 10 cm and were in the one- to two-leaf stage for the postemergence treatment. Treated plants and untreated controls were maintained in a greenhouse for approximately 10 days, after which time all treated plants were compared to untreated controls and visually evaluated for injury. Plant response ratings, summarized in Table A, are based on a 0 to 100 scale where 0 is no effect and 100 is complete control. A dash (-) response means no test result.

[1] = test system: wheat (Triticum aestivum); assay: Test A postemergence, wheat; conditions: visual injury, 0 to 100 scale (0 no effect, 100 complete control), approximately 10 days
Excerpt: as §1, §2

[2] = test system: foxtail, giant (Setaria faberii); assay: Test A postemergence, giant foxtail; conditions: visual injury, 0 to 100 scale (0 no effect, 100 complete control), approximately 10 days
Excerpt: as §1, §2

[3] = test system: foxtail, giant (Setaria faberii); assay: Test A preemergence, giant foxtail; conditions: 0 to 100 scale (0 no effect, 100 complete control)
Excerpt: as §1, §2

[4] = test system: pigweed (Amaranthus retroflexus); assay: Test A preemergence, pigweed; conditions: 0 to 100 scale (0 no effect, 100 complete control)
Excerpt: as §1, §2

[5] = test system: ryegrass, Italian (Lolium multiflorum); assay: Test A preemergence, Italian ryegrass; conditions: 0 to 100 scale (0 no effect, 100 complete control)
Excerpt: as §1, §2

[6] = test system: ryegrass, Italian (Lolium multiflorum); assay: Test A postemergence, Italian ryegrass; conditions: visual injury, 0 to 100 scale (0 no effect, 100 complete control), approximately 10 days
Excerpt: as §1, §2

[7] = test system: blackgrass (Alopecurus myosuroides); assay: Test A postemergence, blackgrass; conditions: visual injury, 0 to 100 scale (0 no effect, 100 complete control), approximately 10 days
Excerpt: as §1, §2

[8] = test system: barnyardgrass (Echinochloa crus-galli); assay: Test A postemergence, barnyardgrass; conditions: visual injury, 0 to 100 scale (0 no effect, 100 complete control), approximately 10 days
Excerpt: as §1, §2

[9] = test system: galium (catchweed bedstraw, Galium aparine); assay: Test A postemergence, galium; conditions: visual injury, 0 to 100 scale (0 no effect, 100 complete control), approximately 10 days
Excerpt: as §1, §2

[10] = test system: ragweed (common ragweed, Ambrosia elatior); assay: Test A postemergence, ragweed; conditions: visual injury, 0 to 100 scale (0 no effect, 100 complete control), approximately 10 days
Excerpt: as §1, §2

[11] = test system: barnyardgrass (Echinochloa crus-galli); assay: Test A preemergence, barnyardgrass; conditions: 0 to 100 scale (0 no effect, 100 complete control)
Excerpt: as §1, §2

[12] = test system: ragweed (common ragweed, Ambrosia elatior); assay: Test A preemergence, ragweed; conditions: 0 to 100 scale (0 no effect, 100 complete control)
Excerpt: as §1, §2

kochia (Kochia scoparia) [13] = assay: Test A preemergence, kochia; conditions: 0 to 100 scale (0 no effect, 100 complete control)
Excerpt: as §1, §2

kochia (Kochia scoparia) [14] = assay: Test A postemergence, kochia; conditions: visual injury, 0 to 100 scale (0 no effect, 100 complete control), approximately 10 days
Excerpt: as §1, §2

[15] = test system: pigweed (Amaranthus retroflexus); assay: Test A postemergence, pigweed; conditions: visual injury, 0 to 100 scale (0 no effect, 100 complete control), approximately 10 days
Excerpt: as §1, §2

O=C1NCC(c2cccc(COc3ccccc3)c2)C1C(=O)Nc1ccc(F)cc1F (stereo not drawn) [Compound 20]
Plant response rating, Corn (corn (Zea mays); 125 g ai/ha): 0
Plant response rating, Corn (corn (Zea mays); 500 g ai/ha): 0
Plant response rating, Wheat ([1]; 125 g ai/ha): 0
Plant response rating, Wheat ([1]; 500 g ai/ha): 0
Plant response rating, Foxtail, Giant ([2]; 125 g ai/ha): 40
Plant response rating, Foxtail, Giant ([2]; 500 g ai/ha): 60
Plant response rating, Foxtail, Giant ([3]; 125 g ai/ha): 30
Plant response rating, Foxtail, Giant ([3]; 500 g ai/ha): 80
Plant response rating, Pigweed ([4]; 125 g ai/ha): 0
Plant response rating, Pigweed ([4]; 500 g ai/ha): 0
Plant response rating, Ryegrass, Italian ([5]; 125 g ai/ha): 0
Plant response rating, Ryegrass, Italian ([5]; 500 g ai/ha): 0
Plant response rating, Ryegrass, Italian ([6]; 125 g ai/ha): 0
Plant response rating, Ryegrass, Italian ([6]; 500 g ai/ha): 0
Plant response rating, Blackgrass ([7]; 125 g ai/ha): 0
Plant response rating, Blackgrass ([7]; 500 g ai/ha): 0
Plant response rating, Barnyardgrass ([8]; 125 g ai/ha): 40
Plant response rating, Barnyardgrass ([8]; 500 g ai/ha): 70
Plant response rating, Galium ([9]; 125 g ai/ha): 0
Plant response rating, Galium ([9]; 500 g ai/ha): 0
Plant response rating, Ragweed ([10]; 125 g ai/ha): 0
Plant response rating, Ragweed ([10]; 500 g ai/ha): 0
Plant response rating, Barnyardgrass ([11]; 125 g ai/ha): 20
Plant response rating, Barnyardgrass ([11]; 500 g ai/ha): 70
Plant response rating, Ragweed ([12]; 125 g ai/ha): 0
Plant response rating, Ragweed ([12]; 500 g ai/ha): 0
Plant response rating, Kochia (kochia (Kochia scoparia) [13]; 125 g ai/ha): 0
Plant response rating, Kochia (kochia (Kochia scoparia) [13]; 500 g ai/ha): 30
Plant response rating, Kochia (kochia (Kochia scoparia) [14]; 125 g ai/ha): 0
Plant response rating, Kochia (kochia (Kochia scoparia) [14]; 500 g ai/ha): 0
Plant response rating, Pigweed ([15]; 125 g ai/ha): 0
Plant response rating, Pigweed ([15]; 500 g ai/ha): 0

O=C1NCC(c2cccc(COc3ccccc3)c2)C1C(=O)Nc1cccc(F)c1F (stereo not drawn) [Compound 21]
Plant response rating, Corn (corn (Zea mays); 125 g ai/ha): 0
Plant response rating, Corn (corn (Zea mays); 500 g ai/ha): 0
Plant response rating, Wheat ([1]; 125 g ai/ha): 0
Plant response rating, Wheat ([1]; 500 g ai/ha): 0
Plant response rating, Foxtail, Giant ([2]; 125 g ai/ha): 30
Plant response rating, Foxtail, Giant ([2]; 500 g ai/ha): 30
Plant response rating, Foxtail, Giant ([3]; 125 g ai/ha): 20
Plant response rating, Foxtail, Giant ([3]; 500 g ai/ha): 60
Plant response rating, Pigweed ([4]; 125 g ai/ha): 0
Plant response rating, Pigweed ([4]; 500 g ai/ha): 0
Plant response rating, Ryegrass, Italian ([5]; 125 g ai/ha): 0
Plant response rating, Ryegrass, Italian ([5]; 500 g ai/ha): 0
Plant response rating, Ryegrass, Italian ([6]; 125 g ai/ha): 0
Plant response rating, Ryegrass, Italian ([6]; 500 g ai/ha): 0
Plant response rating, Blackgrass ([7]; 125 g ai/ha): 0
Plant response rating, Blackgrass ([7]; 500 g ai/ha): 0
Plant response rating, Barnyardgrass ([8]; 125 g ai/ha): 20
Plant response rating, Barnyardgrass ([8]; 500 g ai/ha): 20
Plant response rating, Galium ([9]; 125 g ai/ha): 0
Plant response rating, Galium ([9]; 500 g ai/ha): 0
Plant response rating, Ragweed ([10]; 125 g ai/ha): 0
Plant response rating, Ragweed ([10]; 500 g ai/ha): 0
Plant response rating, Barnyardgrass ([11]; 125 g ai/ha): 0
Plant response rating, Barnyardgrass ([11]; 500 g ai/ha): 40
Plant response rating, Ragweed ([12]; 125 g ai/ha): 0
Plant response rating, Ragweed ([12]; 500 g ai/ha): 0
Plant response rating, Kochia (kochia (Kochia scoparia) [13]; 125 g ai/ha): 0
Plant response rating, Kochia (kochia (Kochia scoparia) [13]; 500 g ai/ha): 20
Plant response rating, Kochia (kochia (Kochia scoparia) [14]; 125 g ai/ha): 0
Plant response rating, Kochia (kochia (Kochia scoparia) [14]; 500 g ai/ha): 0
Plant response rating, Pigweed ([15]; 125 g ai/ha): 0
Plant response rating, Pigweed ([15]; 500 g ai/ha): 0

O=C1NCC(c2cccc(Cn3cccn3)c2)C1C(=O)Nc1ccc(F)c(F)c1F (stereo not drawn) [Compound 26]
Plant response rating, Corn (corn (Zea mays); 125 g ai/ha): 0
Plant response rating, Corn (corn (Zea mays); 500 g ai/ha): 0
Plant response rating, Wheat ([1]; 125 g ai/ha): 0
Plant response rating, Wheat ([1]; 500 g ai/ha): 0
Plant response rating, Foxtail, Giant ([2]; 125 g ai/ha): 30
Plant response rating, Foxtail, Giant ([2]; 500 g ai/ha): 60
Plant response rating, Foxtail, Giant ([3]; 125 g ai/ha): 40
Plant response rating, Foxtail, Giant ([3]; 500 g ai/ha): 90
Plant response rating, Pigweed ([4]; 125 g ai/ha): 0
Plant response rating, Pigweed ([4]; 500 g ai/ha): 0
Plant response rating, Ryegrass, Italian ([5]; 125 g ai/ha): 0
Plant response rating, Ryegrass, Italian ([5]; 500 g ai/ha): 0
Plant response rating, Ryegrass, Italian ([6]; 125 g ai/ha): 0
Plant response rating, Ryegrass, Italian ([6]; 500 g ai/ha): 0
Plant response rating, Blackgrass ([7]; 125 g ai/ha): 0
Plant response rating, Blackgrass ([7]; 500 g ai/ha): 0
Plant response rating, Barnyardgrass ([8]; 125 g ai/ha): 30
Plant response rating, Barnyardgrass ([8]; 500 g ai/ha): 70
Plant response rating, Galium ([9]; 125 g ai/ha): 0
Plant response rating, Galium ([9]; 500 g ai/ha): 0
Plant response rating, Ragweed ([10]; 125 g ai/ha): 0
Plant response rating, Ragweed ([10]; 500 g ai/ha): 0
Plant response rating, Barnyardgrass ([11]; 125 g ai/ha): 40
Plant response rating, Barnyardgrass ([11]; 500 g ai/ha): 90
Plant response rating, Ragweed ([12]; 125 g ai/ha): 0
Plant response rating, Ragweed ([12]; 500 g ai/ha): 0
Plant response rating, Kochia (kochia (Kochia scoparia) [13]; 125 g ai/ha): 0
Plant response rating, Kochia (kochia (Kochia scoparia) [13]; 500 g ai/ha): 0
Plant response rating, Kochia (kochia (Kochia scoparia) [14]; 125 g ai/ha): 0
Plant response rating, Kochia (kochia (Kochia scoparia) [14]; 500 g ai/ha): 0
Plant response rating, Pigweed ([15]; 125 g ai/ha): 0
Plant response rating, Pigweed ([15]; 500 g ai/ha): 0

From patent publication US10405547B2, “Substituted cyclic amides as herbicides” (FMC Corporation, priority 2015, dated 2019)
